Data set [1] concerns the target T1, A3 receptors (Homo sapiens, UniProt P0DMS8).
T1 sequence (P0DMS8 1-318): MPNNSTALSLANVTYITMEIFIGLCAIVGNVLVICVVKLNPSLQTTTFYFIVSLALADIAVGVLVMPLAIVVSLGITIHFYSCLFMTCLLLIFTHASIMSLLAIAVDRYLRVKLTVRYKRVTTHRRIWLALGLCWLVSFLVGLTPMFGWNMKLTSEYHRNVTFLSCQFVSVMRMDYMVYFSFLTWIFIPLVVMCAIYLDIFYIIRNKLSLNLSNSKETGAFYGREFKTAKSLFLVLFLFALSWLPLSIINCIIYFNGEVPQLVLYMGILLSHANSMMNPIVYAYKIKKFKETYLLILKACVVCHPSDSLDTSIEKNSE
The data set can be described thus: Ligand status at adenosine A3 receptor. It counts as binding.

In data set [2] the test system is Troponin-I. The experiment in a line: Plasma troponin-I, 6 hours infusion study. It counts as in vivo, dog. Particulars: HF dogs n=6; for Plasma TnI: iv 10 μg/kg/min constant infusion. The procedure: Six heart failure dogs described in Example 1 were used. Studies using active drug and placebo were performed in each dog in random order a minimum of one week apart. After baseline hemodynamic, angiographic and echocardiographic measurements, GP-531 tartrate or placebo was administered as a continuous constant intravenous infusion for 6 hours. The dose of GP-531 tartrate was 10 μg/kg/min. Complete hemodynamic, angiographic and echocardiographic measurements were made during baseline, and at 1, 2, 3, 4, 5 and 6 hours after initiating drug infusion. In addition, myocardial oxygen consumption (MVO2) was measured at baseline and 4 and 6 hours after initiating drug or saline infusion. LV pressure-volume relationships (P-V Loops) were also measured at baseline and at 6 hours after initiating drug or saline infusion to assess load independent contractility and relaxation. Venous blood samples were obtained at baseline and hourly thereafter. Blood samples (at least […]) were centrifuged at 3000 rpm for 10 minutes and plasma withdrawn and placed in cryostorage tubes and stored upright at −20° C. until needed. Venous blood samples were used to evaluate plasma levels of troponin-I and plasma levels of n-terminal pro-brain natriuretic peptide (NT-proBNP).
Plasma biomarkers were measured in all dogs at all study time points. Troponin I (TnI) was determined in plasma based on the principle of the double antibody sandwich enzyme-linked immunosorbent assay (ELISA) (Hirano, T., et al, Immunol Today 1990, 11:443-449) and NT-pro-BNP based on competitive ELISA (Bonow, R. O. Circulation 1996, 93:1946-1950). Both biomarkers were assayed using commercially available assay kits. Kits for NT-proBNP and TnI were purchased from ALPCO Diagnostics, Salem, N.H. Using standard curves and software, the concentration of each biomarker was expressed as ng/ml for TnI and fmol/ml for NT-proBNP.

For data set [3], the target named is T2, NBTI-sensitive adenosine transporter (Homo sapiens, UniProt Q99808).
T2 sequence (Q99808 1-456): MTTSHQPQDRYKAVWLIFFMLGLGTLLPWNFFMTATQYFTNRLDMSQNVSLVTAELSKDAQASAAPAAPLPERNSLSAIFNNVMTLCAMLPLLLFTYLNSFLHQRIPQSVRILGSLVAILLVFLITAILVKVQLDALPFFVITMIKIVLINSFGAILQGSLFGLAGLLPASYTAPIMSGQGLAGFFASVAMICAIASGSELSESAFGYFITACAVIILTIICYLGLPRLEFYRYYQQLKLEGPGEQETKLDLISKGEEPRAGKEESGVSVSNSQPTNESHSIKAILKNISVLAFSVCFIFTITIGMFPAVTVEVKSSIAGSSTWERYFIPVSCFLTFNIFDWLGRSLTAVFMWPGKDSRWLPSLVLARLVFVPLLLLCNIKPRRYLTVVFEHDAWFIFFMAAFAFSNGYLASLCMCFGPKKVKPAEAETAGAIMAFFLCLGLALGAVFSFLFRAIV
The data set can be described thus: Ligand status at adenosine transporter. It counts as binding.

For data set [4] the following is noted: in man; cited from earlier work.
In data set [5] the target is T3, A1 receptors (Homo sapiens, UniProt P30542).
T3 sequence (P30542 1-326): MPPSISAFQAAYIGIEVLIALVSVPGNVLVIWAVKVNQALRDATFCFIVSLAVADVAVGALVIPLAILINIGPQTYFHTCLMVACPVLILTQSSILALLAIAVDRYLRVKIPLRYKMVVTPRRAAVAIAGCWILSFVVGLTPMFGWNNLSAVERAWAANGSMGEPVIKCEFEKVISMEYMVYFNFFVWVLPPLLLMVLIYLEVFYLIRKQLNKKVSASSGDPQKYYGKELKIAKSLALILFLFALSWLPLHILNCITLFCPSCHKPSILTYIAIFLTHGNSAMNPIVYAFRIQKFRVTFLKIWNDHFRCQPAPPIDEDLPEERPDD
The experiment in a line: Ligand status at adenosine A1 receptor. It counts as binding.

This is an account of results in patent publication US9492468B2, “Methods and compositions for treatment of acute heart failure” (PERICOR THERAPEUTICS, INC., priority 2008, dated 2016).

On to `NC(=O)c1ncn(C2OC(CNCc3ccccc3)C(O)C2O)c1N` [GP-531, 5-amino-1-β-D-(5-benzylamino-5-deoxy-1-β-D-ribofuranosyl)imidazole-4 carboxamide], for which the “Ligand for A3 receptors” value in data set [1] is “has not been shown to be a ligand”. The “Plasma TnI” value in data set [2] (1 h) worked out at 0.57 ± 0.02 pg/mL; in data set [2] (2 h), 0.58 ± 0.02 pg/mL; in data set [2] (3 h), 0.38 ± 0.03 pg/mL; in data set [2] (4 h), 0.43 ± 0.03 pg/mL; in data set [2] (5 h), 0.41 ± 0.03 pg/mL; in data set [2] (6 h), 0.42 ± 0.06 pg/mL. The “Effect on plasma troponin-I” value in data set [2] (iv 10 μg/kg/min for 6 h) is listed as “significantly reduced”. For the same compound, in data set [3], the “Ligand for NBTI-sensitive adenosine transporter” value is reported as “has not been shown to be a ligand”. In data set [4], the Oral bioavailability is roughly 10%. In data set [5], the “Ligand for A1 receptors” value was “has not been shown to be a ligand”.
